Assay results taken from patent US8334403B1, “C-lysine conjugates as pH-controlled, light-activated reagents for double stranded DNA cleavage and associated methods” (Florida State University Research Foundation, Inc., priority 2005, dated 2012).
Read-outs that look alike come from different tables or passages of the source. Marks after values point to notes of the source that are not given here.

What was measured:
[1] = published literature; cited from earlier work
[2] = Fluorometric (emission) determination of pKa; type: physicochemical; conditions: emission; α-amino group (4, 6), ε-amino group (7)
Description: (§1) General information. ^1H, ^13C and ^19F NMR were collected on a Varian Gemini 300 MHz NMR spectrometer and a Bruker 300 MHz NMR spectrometer. Mass spectrometry data was collected on a Jeol JMS-600H. UV spectra were recorded on a Shimadzu UV-2100. Fluorescence spectra were obtained with SPEX FluoMax spectrofluorimeter using right-angle geometry. pH was adjusted with AB 15 plus pH meter (Accument) after standardization at 25° C. All buffers were prepared and pH-adjusted at room temperature (25° C.). Plasmid DNA Photocleavage. pBR322 plasmid DNA (4,361 b/p; from BioLabs Inc., 1 μg/μL solution in 10 mM Tris-HCl (pH 8.0), and 1 mM EDTA buffer) was diluted to a concentration of 0.01 μg/μL. The solution containing cleavage agent, DNA (30 μM/bp) in 20 mM sodium phosphate buffer was incubated for 1 hour at 30° C. Samples were placed on ice at a distance of 20 cm from 200 W Hg—Xe lamp (Spectra-Physics, Laser & Photonics Oriel Instruments with long pass filter with 324 nm cut-off wavelength). Electrophoretic Analysis. The gel electrophoresis was carried out in 1×TBE buffer at 80 V using Miligel FisherBiotech Horizontal Electrophoresis System. All gels were run on 1% agarose slab gels. Before loading, the DNA samples were mixed with 0.33 volume of tracking dye containing bromophenol blue (0.25%) and glycerol (30%) in water. After staining in ethidium bromide solution (2 μg/ml) for 1 hour, the gel was washed with water and pictures were taken with Polaroid 3000ISO type 667 film. The relative quantities of the supercoiled, nicked, and linear DNA were calculated by integrating the “area” of each spot by the image analyzer software Total/Lab (Nonlinear Dynamics Ltd., UK). The amount of supercoiled DNA was multiplied by factor of 1.4 to account for reduced ethidium bromide intercalation into supercoiled DNA. pH titration by ^1H-NMR. pH* of compound 8 (3 mM) solution in D2O containing 0.05 wt % 3-(trimethylsilyl)propionic-2,2,3,3-d4 acid, sodium salt (TSP-d4) was adjusted with 10 wt % DCI and NaOD in D2O at 25° C. under argon purged condition. Spectrometric determinations of pKa. pH of 10 μM of compound solution in H2O was adjusted with 10, 100 mM HCl (aq) and NaOH (aq) solution under argon purged condition. Excitation wavelength was 330 nm and polymethacrylate fluorimeter cuvettes were used. Absorbance and fluorescence titration with DNA. The concentrations of calf thymus DNA stock solution was determined spectophotometrically using the following molar absorptovity values: 1.32×10^4 M^−1 cm^−1 (per base pair) at 260 nm. All experiments were done in 20 mM sodium phosphate buffer at 25° C. and polymethacrylate fluorimeter cuvettes were used. The same amount of DNA was added to both sample and reference cuvettes during UV/Vis titration. Determination of excited state lifetimes. The concentration of compound solution was 10 μM in 20 mM sodium phosphate buffer. The photoluminescence lifetime measurements were conducted by exciting the samples with the output of a Nd:VO—4 (Spectra-Physics Vanguard, 2 W, 532 nm, 76 MHz, 10 ps) pumped R6G dye laser (Coherent 702-1). The output of the dye laser (600 nm, Rhodamine 6G) was cavity dumped at 1.9 MHz and frequency doubled using a BBO crystal to excite the fluorophore (the excitation wavelength used was 290 nm). Samples were excited with <1 mW power and the emission was collected at right angles onto a Chromex S3 500 is 0.5 m imaging monochromator with a 50 g/mm grating and 0.5 nm resolution. […]

[3] = UV-absorption titration determination of pKa; type: physicochemical
Description: as §1

[4] = system: pBR322 plasmid DNA; test: Plasmid relaxation assay: DNA photocleavage of supercoiled plasmid under UV irradiation; type: biochemical; conditions: pH 6, 15 μM, 10 min of UV irradiation
Description: General information. ^1H, ^13C and ^19F NMR were collected on a Varian Gemini 300 MHz NMR spectrometer and a Bruker 300 MHz NMR spectrometer. Mass spectrometry data was collected on a Jeol JMS-600H. UV spectra were recorded on a Shimadzu UV-2100. Fluorescence spectra were obtained with SPEX FluoMax spectrofluorimeter using right-angle geometry. pH was adjusted with AB 15 plus pH meter (Accument) after standardization at 25° C. All buffers were prepared and pH-adjusted at room temperature (25° C.). Plasmid DNA Photocleavage. pBR322 plasmid DNA (4,361 b/p; from BioLabs Inc., 1 μg/μL solution in 10 mM Tris-HCl (pH 8.0), and 1 mM EDTA buffer) was diluted to a concentration of 0.01 μg/μL. The solution containing cleavage agent, DNA (30 μM/bp) in 20 mM sodium phosphate buffer was incubated for 1 hour at 30° C. Samples were placed on ice at a distance of 20 cm from 200 W Hg—Xe lamp (Spectra-Physics, Laser & Photonics Oriel Instruments with long pass filter with 324 nm cut-off wavelength). Electrophoretic Analysis. The gel electrophoresis was carried out in 1×TBE buffer at 80 V using Miligel FisherBiotech Horizontal Electrophoresis System. All gels were run on 1% agarose slab gels. Before loading, the DNA samples were mixed with 0.33 volume of tracking dye containing bromophenol blue (0.25%) and glycerol (30%) in water. After staining in ethidium bromide solution (2 μg/ml) for 1 hour, the gel was washed with water and pictures were taken with Polaroid 3000ISO type 667 film. The relative quantities of the supercoiled, nicked, and linear DNA were calculated by integrating the “area” of each spot by the image analyzer software Total/Lab (Nonlinear Dynamics Ltd., UK). The amount of supercoiled DNA was multiplied by factor of 1.4 to account for reduced ethidium bromide intercalation into supercoiled DNA. pH titration by ^1H-NMR. pH* of compound 8 (3 mM) solution in D2O containing 0.05 wt % 3-(trimethylsilyl)propionic-2,2,3,3-d4 acid, sodium salt (TSP-d4) was adjusted with 10 wt % DCI and NaOD in D2O at 25° C. under argon purged condition. Spectrometric determinations of pKa. pH of 10 μM of compound solution in H2O was adjusted with 10, 100 mM HCl (aq) and NaOH (aq) solution under argon purged condition. Excitation wavelength was 330 nm and polymethacrylate fluorimeter cuvettes were used. Absorbance and fluorescence titration with DNA. The concentrations of calf thymus DNA stock solution was determined spectophotometrically using the following molar absorptovity values: 1.32×10^4 M^−1 cm^−1 (per base pair) at 260 nm. All experiments were done in 20 mM sodium phosphate buffer at 25° C. and polymethacrylate fluorimeter cuvettes were used. The same amount of DNA was added to both sample and reference cuvettes during UV/Vis titration. Determination of excited state lifetimes. The concentration of compound solution was 10 μM in 20 mM sodium phosphate buffer. The photoluminescence lifetime measurements were conducted by exciting the samples with the output of a Nd:VO—4 (Spectra-Physics Vanguard, 2 W, 532 nm, 76 MHz, 10 ps) pumped R6G dye laser (Coherent 702-1). The output of the dye laser (600 nm, Rhodamine 6G) was cavity dumped at 1.9 MHz and frequency doubled using a BBO crystal to excite the fluorophore (the excitation wavelength used was 290 nm). Samples were excited with <1 mW power and the emission was collected at right angles onto a Chromex S3 500 is 0.5 m imaging monochromator with a 50 g/mm grating and 0.5 nm resolution. Output of the monochromator is focused into a Hamamatsu C5680 streak camera operating at a 20 ns window for the fluorophore. Intensity analysis was carried out by integrating the spectral profile in time on the streak camera. Lifetime analysis over 6-7 lifetimes of the fluorophore was conducted by binning the photoluminescence intensity collected on the streak camera over a 20 nm spectral window at the centroid value of the emission of the fluorophore. Ethidium bromide displacement. […]

For `NCCCC[C@H](N)C(=O)O` [Lysine], the pKa1 [1] is listed as 8.95^b and the pKa2 [1] is listed as 10.53^b.

In the case of `Cl.NCCCCCC(=O)Nc1ccc(C#Cc2c(F)c(F)nc(F)c2F)cc1` [Compound 7, 6-Aminohexanoic acid [4-(2,3,5,6-tetrafluoro-pyridin-4-ylethynyl)-phenyl]-amide Hydrochloride], the pKa1 [2] is reported as 10.8, the “pKa for the ε-ammonium group lower by absorption than derived from the fluorescence changes” value ([3]; absorption vs fluorescence) is reported as greater than 1 pKa units and the pKa1 ([3]; absorption, α-amino group (4, 6), ε-amino group (7)) is reported as 9.4. The ds-cleavage [4] was “do not produce any ds-cleavage”.
